In patent US9814724B2, “Antitumor effect potentiator and antitumor agent” (TAIHO PHARMACEUTICAL CO., LTD., priority 2003, dated 2017):

How the values were obtained:
5-FU degradation = conditions: compared with uracil; cited from earlier work
[1] = Antitumor effect on subcutaneously implanted Colon 38 tumor in mice, 9-day oral dosing (Example 2); type: in vivo, male mice C57BL/6; conditions: folinic acid 40.0 mg/kg/day (given as calcium folinate), alone or with tegafur+gimeracil+oteracil potassium 8.7+2.5+8.5 mg/kg/day or tegafur+uracil 15.1+33.8 mg/kg/day, oral once a day for 9 days; 12 days after grouping
Experimental: (§1) The ratio of the tumor volume 12 days after grouping to the tumor volume upon grouping was calculated to obtain a relative tumor volume. The tumor growth inhibition ratio (%) was determined using the relative tumor volumes of the drug-administered groups and the control group.

[2] = system: human colon cancer cell line Colon 38; assay: as above; type: in vivo, male mice C57BL/6; conditions: folinic acid 40.0 mg/kg/day (given as calcium folinate), alone or with tegafur+gimeracil+oteracil potassium 8.7+2.5+8.5 mg/kg/day or tegafur+uracil 15.1+33.8 mg/kg/day, oral once a day for 9 days; 12 days after grouping, vs control group
Experimental: as §1

[3] = system: human colon cancer cell line KM20C; assay: Antitumor effect on subcutaneously implanted KM20C tumor in nude mice, 9-day oral dosing (Example 1); type: in vivo, male nude mice BALB/c-nu/nu; conditions: folinic acid 20.0 mg/kg/day (given as calcium folinate), alone or with tegafur+gimeracil+oteracil potassium 8.3+2.4+8.1 mg/kg/day or tegafur+uracil 20.0+44.8 mg/kg/day, oral once a day for 9 days, 10 days after grouping
Experimental: The ratio of the tumor volume 10 days after grouping to the tumor volume upon grouping was calculated to obtain a relative tumor volume. The tumor growth inhibition ratio (%) was determined using the relative tumor volumes of the drug-administered groups and the control group.

[4] = Body weight change as parameter of whole-body toxicity (Example 3); conditions: folinic acid 20.0 mg/kg/day (as calcium folinate), alone or with tegafur+gimeracil+oteracil potassium 5.7+1.7+5.6 mg/kg/day, oral once a day for 14 days; 15 days after beginning of administration
From the text: A cubic fragment measuring about 2 mm in diameter of the human colon cancer cell line KM20C was subcutaneously implanted on the backs of male nude mice (BALB/cA-nu). When the average tumor volume (=major axis (mm)×minor axis (mm)^2) reached about 200 mm^3, the mice were divided into groups.
A combined drug containing a tegafur/gimeracil/oteracil potassium combined drug (molar ratio of tegafur:gimeracil oteracil potassium=1:0.4:1) and calcium folinate, dissolved or suspended in a 0.5% hydroxypropylmethyl cellulose (HPMC) solution was orally administered to the mice once a day in amounts as shown in Table 3 for 14 consecutive days from the day after grouping.
The body weight change was calculated by subtracting the body weight of mice 15 days after the beginning of administration from the body weight of mice upon grouping used as a parameter of whole-body toxicity of the pharmaceutical preparation. Although calcium folinate was used in the experiment, the dosage given in the table is that calculated as the amount of folinic acid.

[5] = Body weight change as parameter of whole-body toxicity (Example 1); conditions: folinic acid 20.0 mg/kg/day (given as calcium folinate), alone or with tegafur+gimeracil+oteracil potassium 8.3+2.4+8.1 mg/kg/day or tegafur+uracil 20.0+44.8 mg/kg/day, oral once a day for 9 days; 10 days after beginning of administration
From the text: A cubic fragment measuring about 2 mm in diameter of the human colon cancer cell line KM20C was subcutaneously implanted on the backs of male nude mice BALB/c-nu/nu. When the average tumor volume (=major axis (mm)×minor axis (mm)^2) reached about 200 mm^3, the mice were divided into groups.
The following preparations each dissolved or suspended in a 0.5% hydroxypropylmethyl cellulose (HPMC) solution were orally administered to the mice once a day in amounts as shown in Table 1 for 9 consecutive days from the day after grouping: calcium folinate; a tegafur/gimeracil/oteracil potassium combined drug (molar ratio of tegafur:gimeracil:oteracil potassium=1:0.4:1); a combined drug containing the tegafur/gimeracil/oteracil potassium combined drug described above and calcium folinate; a tegafur/uracil combined drug (molar ratio of tegafur:uracil=1:4); and a combined drug containing the tegafur/uracil combined drug described above and calcium folinate.
(§2) The body weight change was calculated by subtracting the body weight of mice 10 days after the beginning of administration from the body weight of mice upon grouping and used as a parameter of whole-body toxicity of the pharmaceutical preparation.

[6] = system: human colon cancer cell line KM20C; assay: Effect of folinate dosage on the antitumor effect on implanted KM20C tumor in nude mice, 14-day oral dosing (Example 3); type: in vivo, male nude mice (BALB/cA-nu); conditions: for enhancement of the antitumor effect of the tegafur/gimeracil/oteracil potassium combined drug: KM20C
Experimental: The ratio of the tumor volume 15 days after grouping to the tumor volume upon grouping was calculated to obtain a relative tumor volume. The tumor growth inhibition ratio (%) was determined using the relative tumor volumes of the drug-administered groups and the control group.

[7] = Body weight change as parameter of whole-body toxicity (Example 2); conditions: folinic acid 40.0 mg/kg/day (given as calcium folinate), alone or with tegafur+gimeracil+oteracil potassium 8.7+2.5+8.5 mg/kg/day or tegafur+uracil 15.1+33.8 mg/kg/day, oral once a day for 9 days; 10 days after beginning of administration
From the text: A cubic fragment measuring about 2 mm in diameter of the human colon cancer cell line Colon 38 was subcutaneously implanted on the backs of male mice C57BL/6. When the average tumor volume (=major axis (mm)×minor axis (mm)^2) reached about 150 mm^3, the mice were divided into groups.
The following preparations each dissolved or suspended in a 0.5% hydroxypropylmethyl cellulose (HPMC) solution were orally administered to the mice once a day in amounts as shown in Table 2 for 9 consecutive days from the day after grouping: calcium folinate; a tegafur/gimeracil/oteracil potassium combined drug (molar ratio of tegafur:gimeracil:oteracil potassium=1:0.4:1); a combined drug containing the tegafur/gimeracil/oteracil potassium combined drug described above and calcium folinate; a tegafur/uracil combined drug (molar ratio of tegafur:uracil=1:4); and a combined drug containing the tegafur/uracil combined drug described above and calcium folinate.
as §2

Oc1cc(O)c(Cl)cn1 [gimeracil, 2,4-dihydroxy-5-chloropyridine]
5-FU degradation inhibitory effect relative to that of uracil (5-FU degradation): about 200 times

Nc1nc(=O)c2c([nH]1)NCC(CNc1ccc(C(=O)N[C@@H](CCC(=O)O)C(=O)O)cc1)N2C=O (mixture of isomers) [folinic acid]
Relative tumor volume (Mean ± SD) [1]: 8.78 | Tumor growth inhibition ratio (%) [2]: 7.5% | Relative tumor volume (Mean ± SD) [3]: 2.24 | Tumor growth inhibition ratio (%) ([3]; vs control group): 6.1% | Body weight change [4]: -0.6 g | Body weight change [5]: -0.8 g | enhancement of the antitumor effect of the tegafur/gimeracil/oteracil potassium combined drug ([6]; calcium folinate at the dose of 2.5 mg/kg/day): some enhancement | enhancement of the antitumor effect of the tegafur/gimeracil/oteracil potassium combined drug ([6]; calcium folinate at the dose of 5 mg/kg/day): clear enhancement | Relative tumor volume (Mean ± SD) ([6]; folinic acid 20.0 mg/kg/day (as calcium folinate), alone or with tegafur+gimeracil+oteracil potassium 5.7+1.7+5.6 mg/kg/day, oral once a day for 14 days, 15 days after grouping): 4.50 ± 1.25 ^ | Tumor growth inhibition ratio (%) ([6]; folinic acid 20.0 mg/kg/day (as calcium folinate), alone or with tegafur+gimeracil+oteracil potassium 5.7+1.7+5.6 mg/kg/day, oral once a day for 14 days, 15 days after grouping, vs control group): 5.4% | Body weight change [7]: 0.7 g
